# Experimental data from patent US9585875B2, “TRPM8 antagonists” (Dompé S.P.A., priority 2011, dated 2017).
# Legend:
# Plasma Protein Binding = type: in vitro ADME; conditions: human
# Microsome stability [1] = type: in vitro ADME; conditions: human
# [2] = target: T1, human Dopamine D2S Receptor (Homo sapiens, UniProt P14416); assay: Radioligand binding assay; conditions: read-out: percentage of control binding value (% B)
# T1 construct: expressed in transfected cells; host or cells: HEK293 or CHO
# T1 sequence (P14416 1-414 isoform P14416-2): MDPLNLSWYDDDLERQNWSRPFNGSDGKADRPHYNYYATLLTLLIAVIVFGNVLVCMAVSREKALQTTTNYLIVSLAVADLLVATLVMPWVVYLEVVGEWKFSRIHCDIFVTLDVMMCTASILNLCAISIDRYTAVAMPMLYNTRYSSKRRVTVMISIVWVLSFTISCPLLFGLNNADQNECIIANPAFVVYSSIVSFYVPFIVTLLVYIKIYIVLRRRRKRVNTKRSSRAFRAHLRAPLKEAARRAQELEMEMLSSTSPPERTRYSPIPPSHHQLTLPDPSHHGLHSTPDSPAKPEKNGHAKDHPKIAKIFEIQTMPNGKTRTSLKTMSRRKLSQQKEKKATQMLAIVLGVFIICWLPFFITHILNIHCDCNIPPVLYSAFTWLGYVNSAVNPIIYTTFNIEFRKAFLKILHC
# Experimental: (§1) The objective of this study was to evaluate the in vitro effects of compounds 10 and 45 on cloned human GPCRs (G-protein coupled receptors) expressed in HEK293 or CHO cells using radioligand binding assays (compound concentration=10 μM).
# (§2) Three replicates were performed for each experiment.
# (§3) For each assay a concentration-response curve of the appropriate reference compound was performed in each experiment. The sample radioactivity content was measured after the addition of the scintillation cocktail Microscint 20 (PerkinElmer), by a microplate scintillation Beta-counter TopCount NXT (PerkinElmer). The atomic disintegrations per minutes evaluated with the beta counter were about 15 times higher than those found using the gamma counter. Data are expressed as percentage of control binding value (% B) and test compound inhibition was considered significant when % B was <75% at 10 μM.
# [3] = target: T2, human Adrenergic β2 Receptor (Homo sapiens, UniProt P07550); assay: Radioligand binding assay; conditions: read-out: percentage of control binding value (% B)
# T2 construct: expressed in transfected cells; host or cells: HEK293 or CHO
# Experimental: as §1, §2, §3
# [4] = target: T3, human Cannabinoid CB2 Receptor (Homo sapiens, UniProt P34972); assay: Radioligand binding assay; conditions: read-out: percentage of control binding value (% B)
# T3 construct: expressed in transfected cells; host or cells: HEK293 or CHO
# T3 sequence (P34972 whole entry): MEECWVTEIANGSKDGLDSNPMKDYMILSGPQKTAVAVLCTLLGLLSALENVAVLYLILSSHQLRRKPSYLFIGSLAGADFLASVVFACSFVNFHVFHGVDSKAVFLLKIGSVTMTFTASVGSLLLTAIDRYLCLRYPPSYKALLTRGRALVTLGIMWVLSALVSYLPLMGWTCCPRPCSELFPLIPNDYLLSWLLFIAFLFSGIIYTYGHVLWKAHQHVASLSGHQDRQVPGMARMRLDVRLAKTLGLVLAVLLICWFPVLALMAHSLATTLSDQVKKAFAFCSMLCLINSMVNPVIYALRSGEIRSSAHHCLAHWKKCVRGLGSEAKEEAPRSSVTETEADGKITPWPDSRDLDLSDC
# Experimental: as §1, §2, §3
# [5] = target: T4, human Serotoninergic 5-HT1A Receptor (Homo sapiens, UniProt P08908); assay: Radioligand binding assay; conditions: read-out: percentage of control binding value (% B)
# T4 construct: expressed in transfected cells; host or cells: HEK293 or CHO
# T4 sequence (P08908 whole entry): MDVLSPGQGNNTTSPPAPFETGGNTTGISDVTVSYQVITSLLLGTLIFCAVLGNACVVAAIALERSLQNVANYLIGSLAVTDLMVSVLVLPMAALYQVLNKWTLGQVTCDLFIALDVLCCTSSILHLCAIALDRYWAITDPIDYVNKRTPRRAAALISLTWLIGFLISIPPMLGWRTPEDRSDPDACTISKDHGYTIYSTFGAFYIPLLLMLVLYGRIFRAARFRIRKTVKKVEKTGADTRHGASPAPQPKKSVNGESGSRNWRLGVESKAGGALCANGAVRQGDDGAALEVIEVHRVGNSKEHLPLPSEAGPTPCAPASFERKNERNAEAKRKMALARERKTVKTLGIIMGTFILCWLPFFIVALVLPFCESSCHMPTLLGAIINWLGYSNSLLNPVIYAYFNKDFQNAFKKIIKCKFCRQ
# Experimental: as §1, §2, §3
# [6] = target: T5, human Muscarinic M3 Receptor (Homo sapiens, UniProt P20309); assay: Radioligand binding assay; conditions: read-out: percentage of control binding value (% B)
# T5 construct: expressed in transfected cells; host or cells: HEK293 or CHO
# Experimental: as §1, §2, §3
# [7] = target: T6, human Histamine H1 Receptor (Homo sapiens, UniProt P35367); assay: Radioligand binding assay; conditions: read-out: percentage of control binding value (% B)
# T6 construct: expressed in transfected cells; host or cells: HEK293 or CHO
# Experimental: as §1, §2, §3
# [8] = target: T7, human Adrenergic α1A Receptor (Homo sapiens, UniProt P35348); assay: Radioligand binding assay; conditions: read-out: percentage of control binding value (% B)
# T7 construct: expressed in transfected cells; host or cells: HEK293 or CHO
# T7 sequence (P35348 whole entry): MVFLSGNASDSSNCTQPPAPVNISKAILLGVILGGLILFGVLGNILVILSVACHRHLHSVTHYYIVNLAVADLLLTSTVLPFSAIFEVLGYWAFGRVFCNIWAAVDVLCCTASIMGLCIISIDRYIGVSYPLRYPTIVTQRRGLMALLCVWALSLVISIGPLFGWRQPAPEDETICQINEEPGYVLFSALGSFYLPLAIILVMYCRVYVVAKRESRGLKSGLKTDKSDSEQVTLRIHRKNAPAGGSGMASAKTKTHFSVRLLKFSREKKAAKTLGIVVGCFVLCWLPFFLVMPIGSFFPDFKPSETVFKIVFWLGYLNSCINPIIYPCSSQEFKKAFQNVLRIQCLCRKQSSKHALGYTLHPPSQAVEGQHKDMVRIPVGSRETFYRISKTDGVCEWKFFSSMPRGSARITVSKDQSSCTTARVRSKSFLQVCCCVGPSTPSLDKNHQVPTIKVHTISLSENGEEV
# Experimental: as §1, §2, §3
# [9] = target: T8, human Histamine H2 Receptor (Homo sapiens, UniProt P25021); assay: Radioligand binding assay; conditions: read-out: percentage of control binding value (% B)
# T8 construct: expressed in transfected cells; host or cells: HEK293 or CHO
# Experimental: as §1, §2, §3
# [10] = target: T9, human Dopamine D3 Receptor (Homo sapiens, UniProt P35462); assay: Radioligand binding assay; conditions: read-out: percentage of control binding value (% B)
# T9 construct: expressed in transfected cells; host or cells: HEK293 or CHO
# T9 sequence (P35462 whole entry): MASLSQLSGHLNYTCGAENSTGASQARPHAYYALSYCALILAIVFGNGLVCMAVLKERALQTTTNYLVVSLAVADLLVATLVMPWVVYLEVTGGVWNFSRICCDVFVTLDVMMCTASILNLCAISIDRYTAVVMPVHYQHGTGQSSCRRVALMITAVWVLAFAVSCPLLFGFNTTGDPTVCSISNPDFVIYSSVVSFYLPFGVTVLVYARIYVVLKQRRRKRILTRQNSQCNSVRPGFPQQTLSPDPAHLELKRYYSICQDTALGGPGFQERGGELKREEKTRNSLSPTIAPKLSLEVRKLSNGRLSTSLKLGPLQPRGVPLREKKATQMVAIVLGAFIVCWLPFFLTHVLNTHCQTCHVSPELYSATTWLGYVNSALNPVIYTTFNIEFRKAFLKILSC
# Experimental: as §1, §2, §3
# [11] = target: T10, human Adrenergic β1 Receptor (Homo sapiens, UniProt P08588); assay: Radioligand binding assay; conditions: read-out: percentage of control binding value (% B)
# T10 construct: expressed in transfected cells; host or cells: HEK293 or CHO
# T10 sequence (P08588 whole entry): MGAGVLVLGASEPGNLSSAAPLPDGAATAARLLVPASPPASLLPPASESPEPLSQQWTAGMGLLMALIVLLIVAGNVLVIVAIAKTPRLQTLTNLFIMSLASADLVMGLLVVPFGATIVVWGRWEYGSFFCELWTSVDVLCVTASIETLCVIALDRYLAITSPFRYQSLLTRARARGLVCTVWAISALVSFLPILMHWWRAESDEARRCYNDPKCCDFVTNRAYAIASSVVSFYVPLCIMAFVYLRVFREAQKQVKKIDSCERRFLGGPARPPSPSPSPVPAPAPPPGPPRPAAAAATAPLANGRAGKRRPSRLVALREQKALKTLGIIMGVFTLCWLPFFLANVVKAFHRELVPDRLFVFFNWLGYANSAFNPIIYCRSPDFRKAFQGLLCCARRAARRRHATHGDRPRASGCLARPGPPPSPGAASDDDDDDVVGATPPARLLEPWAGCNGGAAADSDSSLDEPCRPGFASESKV
# Experimental: as §1, §2, §3
# [12] = target: T11, human Bradykinin B1 Receptor (Homo sapiens, UniProt P46663); assay: Radioligand binding assay; conditions: read-out: percentage of control binding value (% B)
# T11 construct: expressed in transfected cells; host or cells: HEK293 or CHO
# Experimental: as §1, §2, §3
# [13] = target: T12, human Muscarinic M2 Receptor (Homo sapiens, UniProt P08172); assay: Radioligand binding assay; conditions: read-out: percentage of control binding value (% B)
# T12 construct: expressed in transfected cells; host or cells: HEK293 or CHO
# T12 sequence (P08172 whole entry): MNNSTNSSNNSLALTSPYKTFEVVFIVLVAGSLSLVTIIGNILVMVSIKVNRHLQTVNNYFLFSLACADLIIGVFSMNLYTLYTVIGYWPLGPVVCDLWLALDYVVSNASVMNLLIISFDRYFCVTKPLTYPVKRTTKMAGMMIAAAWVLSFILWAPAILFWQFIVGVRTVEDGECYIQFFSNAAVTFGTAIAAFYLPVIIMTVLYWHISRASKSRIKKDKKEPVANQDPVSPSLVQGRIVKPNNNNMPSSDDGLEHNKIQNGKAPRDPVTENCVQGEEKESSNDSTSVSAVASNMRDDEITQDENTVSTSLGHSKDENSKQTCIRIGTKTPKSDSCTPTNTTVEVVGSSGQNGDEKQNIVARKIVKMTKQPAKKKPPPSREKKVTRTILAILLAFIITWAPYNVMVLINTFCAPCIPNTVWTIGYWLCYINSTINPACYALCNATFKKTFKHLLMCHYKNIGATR
# Experimental: as §1, §2, §3
# [14] = target: T13, human Adrenergic α2A Receptor (Homo sapiens, UniProt P08913); assay: Radioligand binding assay; conditions: read-out: percentage of control binding value (% B)
# T13 construct: expressed in transfected cells; host or cells: HEK293 or CHO
# T13 sequence (P08913 whole entry): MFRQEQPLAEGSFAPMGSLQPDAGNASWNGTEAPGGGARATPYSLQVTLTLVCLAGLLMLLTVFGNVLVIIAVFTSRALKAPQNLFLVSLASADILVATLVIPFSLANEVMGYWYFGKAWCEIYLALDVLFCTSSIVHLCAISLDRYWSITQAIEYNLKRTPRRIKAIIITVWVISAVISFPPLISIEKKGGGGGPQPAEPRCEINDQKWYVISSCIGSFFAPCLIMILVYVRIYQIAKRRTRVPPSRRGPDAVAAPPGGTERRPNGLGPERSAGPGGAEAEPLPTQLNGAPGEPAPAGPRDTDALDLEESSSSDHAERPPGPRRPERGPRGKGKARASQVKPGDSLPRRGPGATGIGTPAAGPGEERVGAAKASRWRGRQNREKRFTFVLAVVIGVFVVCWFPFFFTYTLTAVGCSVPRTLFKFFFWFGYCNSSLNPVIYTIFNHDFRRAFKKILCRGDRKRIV
# Experimental: as §1, §2, §3
# TRPV1 = TRPV1 (Homo sapiens, UniProt Q8NER1); assay: Calcium influx counterassay, agonist capsaicin; type: cell-based; conditions: 0.1 μM capsaicin = 100%, read-out: Normalized % inhibition (TRPV1); for inhibition at 1 µM: Test Conc. 1 uM; for inhibition at 10 µM: Test Conc. 10 uM
# Chain of TRPV1 (Q8NER1 whole entry, species assumed): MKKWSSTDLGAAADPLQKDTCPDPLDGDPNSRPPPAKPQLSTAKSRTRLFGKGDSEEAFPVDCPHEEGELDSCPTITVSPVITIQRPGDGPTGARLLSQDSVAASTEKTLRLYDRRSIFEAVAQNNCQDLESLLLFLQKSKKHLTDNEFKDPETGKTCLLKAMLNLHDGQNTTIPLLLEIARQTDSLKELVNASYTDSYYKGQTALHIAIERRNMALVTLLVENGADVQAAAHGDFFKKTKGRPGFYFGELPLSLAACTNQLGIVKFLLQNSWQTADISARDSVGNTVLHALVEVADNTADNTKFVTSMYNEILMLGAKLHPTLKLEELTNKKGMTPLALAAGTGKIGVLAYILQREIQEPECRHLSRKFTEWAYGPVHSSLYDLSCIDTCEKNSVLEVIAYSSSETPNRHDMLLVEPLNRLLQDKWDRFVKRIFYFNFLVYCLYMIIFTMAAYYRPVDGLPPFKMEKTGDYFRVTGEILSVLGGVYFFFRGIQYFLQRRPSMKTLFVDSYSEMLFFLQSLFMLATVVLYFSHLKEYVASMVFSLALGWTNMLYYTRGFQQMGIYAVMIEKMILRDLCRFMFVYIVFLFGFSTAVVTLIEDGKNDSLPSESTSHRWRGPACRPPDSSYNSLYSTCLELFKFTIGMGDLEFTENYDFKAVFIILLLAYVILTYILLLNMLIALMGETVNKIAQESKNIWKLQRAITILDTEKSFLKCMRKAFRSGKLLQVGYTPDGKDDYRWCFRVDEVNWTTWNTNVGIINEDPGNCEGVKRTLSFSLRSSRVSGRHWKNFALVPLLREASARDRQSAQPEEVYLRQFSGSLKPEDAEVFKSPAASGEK
# Experimental: In order to address more specifically the potential selectivity issues, a counterassay was carried out for 10, 45 and 118 against TRPV1 and TRPV4 ion channels, both involved in the nociception (Jhaveri M D, et al 2005. Eur. J. Neurosci. 22 (2): 361-70, Brierley S M et al, 2008, Gastroenterology. 2008 June; 134(7):2059-69. ). The ability of each test compound to act as an antagonist of TRPV1 was evaluated with a calcium influx assay.
# Microsome stability [15] = type: in vitro ADME; conditions: rat
# Female rats = assay: Isovolumetric bladder model; type: in vivo, rat
# Experimental: Female rats were anesthetized with urethane. Ureters were ligated and sectioned. A catheter was inserted through the urinary meatus into the bladder before urethral ligature. […] 10 or 45 or with 100 μL of vehicle, then with 100 μL of saline every 5 min until the occurrence of rhythmic bladder contraction (RBC). A maximal volume of 3 mL was infused. The intravesical pressure was followed during 1 h30 after RBC appearance. For each group, Threshold Volume (TV), Micturition Frequency (MF) and Amplitude of Micturition (AM) were measured during the whole period. […] No effect on the total MF (measured during 90 min) was observed.
# CYP 2C9 = CYP 2C9 (Homo sapiens, UniProt P11712); assay: CYP inhibition; type: in vitro ADME
# Chain of CYP 2C9 (P11712 whole entry): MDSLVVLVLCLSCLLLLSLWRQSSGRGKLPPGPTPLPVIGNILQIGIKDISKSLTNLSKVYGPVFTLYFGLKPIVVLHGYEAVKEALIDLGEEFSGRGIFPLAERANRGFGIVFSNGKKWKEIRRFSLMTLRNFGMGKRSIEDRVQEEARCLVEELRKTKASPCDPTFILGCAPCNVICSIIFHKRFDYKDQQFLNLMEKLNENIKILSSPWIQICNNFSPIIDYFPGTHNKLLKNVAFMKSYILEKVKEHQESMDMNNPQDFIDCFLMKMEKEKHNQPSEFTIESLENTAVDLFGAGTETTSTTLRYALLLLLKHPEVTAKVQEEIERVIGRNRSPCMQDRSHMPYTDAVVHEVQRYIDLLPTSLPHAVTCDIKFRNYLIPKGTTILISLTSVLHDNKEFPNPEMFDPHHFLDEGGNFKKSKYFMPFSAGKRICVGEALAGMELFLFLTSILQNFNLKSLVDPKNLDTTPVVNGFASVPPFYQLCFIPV
# Plasma stability [16] = type: in vitro ADME; conditions: human
# Plasma stability [17] = type: in vitro ADME; conditions: rat
# [18] = intravesical, 3 times 100 μL containing 0.1 mg
fraction unbound at 10 μM (Plasma Protein Binding),remaining activity at 10 µM [2],remaining activity at 10 µM [3],remaining activity at 10 µM [4],remaining activity at 10 µM [5],remaining activity at 10 µM [6],remaining activity at 10 µM [7],remaining activity at 10 µM [8],remaining activity at 10 µM [9],remaining activity at 10 µM [10],remaining activity at 10 µM [11],remaining activity at 10 µM [12],remaining activity at 10 µM [13],remaining activity at 10 µM [14],inhibition at 1 µM (TRPV1),inhibition at 10 µM (TRPV1),"CYP (% inhibition) @10 μM, 2C9 (CYP 2C9)",SMILES,other results
0.03,100%,88%,102%,100%,98%,99.3%,100%,90%,87%,82%,91%,90%,100%,1.2%,2.3%,<5%,"CCOC(=O)c1sc(-c2cccc(F)c2)nc1O [Compound 10, ethyl 2-(3-fluorophenyl)-4-hydroxy-1,3-thiazole-5-carboxylate]","Microsome stability (% remaining) @1 μM (Microsome stability [1]): 5%; Microsome stability (% remaining) @1 μM (Microsome stability [15]): 4%; reduction of Micturition Frequency (MF) (Female rats; 10 mg/kg i.v., first 30 min of the experiment): about 36%; continuous rhythmic bladder contraction (RBC) induced by filling with saline (Female rats; intravesical route, 2.3 mg/rat): completely abolished; Amplitude of Micturition (AM) (Female rats; [18]): did not change; Threshold Volume (TV) (Female rats; [18]): 1.5 mL; effect on the total Micturition Frequency (MF) (Female rats; intravesical, 3 times 100 μL containing 0.1 mg, measured during 90 min): No effect"
0.01,100%,93%,86.7%,100%,95%,100%,96%,93.2%,97.2%,90.5%,99.6%,96%,100%,3.1%,6.3%,<5%,"O=C(O)c1sc(-c2ccc(Cl)cc2)nc1OCc1ccc(Cl)cc1 [Compound 45, 4-[(4-chlorobenzyl)oxy]-2-(4-chlorophenyl)-1,3-thiazole-5-carboxylic acid]",Plasma stability (% remaining) @10 μM (Plasma stability [16]): 1%; Plasma stability (% remaining) @10 μM (Plasma stability [17]): 9%
